Test results reported in US9382228B2 (priority 2013, dated 2016).
Blank lines part the entries; values can stand above or below the compound they belong to.

Key:
[1] = molecular target: unphosphorylated PDGFRβ kinase (uPDGFRβ, Seq. ID No. 3) (Homo sapiens, UniProt P09619); test: biochemical; details: uPDGFRb, enzymatic assay, ATP 500 μM
[2] = molecular target: T1, unphosphorylated c-FMS kinase (uFMS, Seq. ID no. 1) (Homo sapiens, UniProt P07333); test: biochemical; details: uFMS, enzymatic assay, ATP 500 μM
T1 sequence (P07333 538-972): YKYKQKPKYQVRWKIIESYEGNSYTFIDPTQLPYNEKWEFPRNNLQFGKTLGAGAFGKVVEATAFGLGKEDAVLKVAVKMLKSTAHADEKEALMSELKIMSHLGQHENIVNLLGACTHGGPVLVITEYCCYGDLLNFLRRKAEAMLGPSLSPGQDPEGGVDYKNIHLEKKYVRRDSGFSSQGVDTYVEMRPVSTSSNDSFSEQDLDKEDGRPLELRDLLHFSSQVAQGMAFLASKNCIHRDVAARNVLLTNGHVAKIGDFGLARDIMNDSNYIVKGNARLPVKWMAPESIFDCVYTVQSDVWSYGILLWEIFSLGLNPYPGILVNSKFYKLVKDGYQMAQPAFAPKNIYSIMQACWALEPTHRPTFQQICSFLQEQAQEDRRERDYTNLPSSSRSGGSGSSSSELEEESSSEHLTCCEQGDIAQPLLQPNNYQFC

osteoclast precursors = test: cells; format: cell-based; details: read-out: Osteoclast assay
Procedure: Osteoclast Tartrate-Resistant Acid Phosphatase Assay
Diluted compound was transferred to a 384-well black clear bottom plate. Two-thousand five hundred osteoclast precursors (Lonza, Walkersville, Md.) were added per well in growth media containing Receptor Activator of Nuclear Factor Kappa-beta ligand (RANKL) and M-CSF (R&D Systems, Minneapolis, Minn.). […] Tartrate-resistant acid phosphatase activity in the supernatant samples was determined using an acid phosphatase assay kit (Sigma, St. Louis, Mo.). Absorbance was measured at 550 nm using a plate reader. Data was analyzed using Prism software (Graphpad, San Diego, Calif.) to calculate IC50 values.

[3] = molecular target: unphosphorylated c-KIT kinase (uKIT, Seq. ID no. 2) (Homo sapiens, UniProt P10721); test: biochemical; details: uKIT, enzymatic assay, ATP 2000 μM
Procedure: uKit kinase (Seq. ID No. 2) Assay
In this assay, the oxidation of NADH (thus the decrease at A340 nm) was continuously monitored spectrophometrically. […] The inhibition reaction was started by mixing serial diluted test compound with the above reaction mixture. The absorption at 340 nm was monitored continuously for 4 hours at 30° C. on Synergy 2 plate reader (BioTech).

M-NFS-60 cells = test: cells; details: 67 h, read-out: M-NFS-60 cell proliferation
Procedure: M-NFS-6 Cell Proliferation Assay
A serial dilution of test compound was dispensed into a 384-well black clear bottom plate (Corning, Corning, N.Y.). Two thousand five hundred cells were added per well in 50 μL complete growth medium. […] IC50 values were calculated from a series of percent inhibition values determined at a range of inhibitor concentrations using software routines as implemented in the GraphPad Prism software package.

Chain of unphosphorylated c-KIT kinase (uKIT, Seq. ID no. 2) (P10721 with tags, fused parts or gaps): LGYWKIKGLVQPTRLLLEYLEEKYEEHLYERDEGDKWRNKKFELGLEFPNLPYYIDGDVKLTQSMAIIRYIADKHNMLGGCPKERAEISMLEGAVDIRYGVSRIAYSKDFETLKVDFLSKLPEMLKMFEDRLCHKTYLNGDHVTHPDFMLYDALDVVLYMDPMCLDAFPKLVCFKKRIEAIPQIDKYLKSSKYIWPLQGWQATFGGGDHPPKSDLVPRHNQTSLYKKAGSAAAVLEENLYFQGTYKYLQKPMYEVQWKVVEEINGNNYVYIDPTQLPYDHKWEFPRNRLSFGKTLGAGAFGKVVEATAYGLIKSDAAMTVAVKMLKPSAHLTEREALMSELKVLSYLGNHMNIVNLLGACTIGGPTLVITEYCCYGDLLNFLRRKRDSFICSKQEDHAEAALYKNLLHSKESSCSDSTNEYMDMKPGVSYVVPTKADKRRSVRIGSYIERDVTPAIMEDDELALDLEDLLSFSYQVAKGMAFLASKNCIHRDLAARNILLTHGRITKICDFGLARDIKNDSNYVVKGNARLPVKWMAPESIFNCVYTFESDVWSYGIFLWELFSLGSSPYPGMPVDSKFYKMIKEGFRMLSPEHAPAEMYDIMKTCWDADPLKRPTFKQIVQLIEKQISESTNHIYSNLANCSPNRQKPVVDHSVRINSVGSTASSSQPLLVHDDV
Chain of unphosphorylated PDGFRβ kinase (uPDGFRβ, Seq. ID No. 3) (P09619 557-1106): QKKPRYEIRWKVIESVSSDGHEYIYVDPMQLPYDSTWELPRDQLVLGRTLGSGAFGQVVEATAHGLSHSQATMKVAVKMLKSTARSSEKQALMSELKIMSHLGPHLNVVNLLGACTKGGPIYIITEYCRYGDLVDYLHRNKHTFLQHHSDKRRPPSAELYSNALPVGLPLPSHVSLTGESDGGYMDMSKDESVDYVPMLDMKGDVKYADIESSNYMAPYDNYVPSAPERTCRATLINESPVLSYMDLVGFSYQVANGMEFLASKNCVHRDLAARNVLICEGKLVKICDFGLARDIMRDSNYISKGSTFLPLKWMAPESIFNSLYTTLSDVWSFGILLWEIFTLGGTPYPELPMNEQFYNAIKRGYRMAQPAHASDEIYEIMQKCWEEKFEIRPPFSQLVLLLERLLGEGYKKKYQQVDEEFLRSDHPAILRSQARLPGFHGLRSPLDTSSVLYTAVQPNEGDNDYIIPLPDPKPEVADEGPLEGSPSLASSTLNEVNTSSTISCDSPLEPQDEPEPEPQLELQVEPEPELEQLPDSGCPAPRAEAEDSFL

Structure (SMILES): Cc1cc(-c2cc(Oc3ccc(NC(=O)NC(=O)C4CCOC4)nc3)ccn2)ccn1 (centres unmarked) [Example 85, N-((5-((2′-methyl-[2,4′-bipyridin]-4-yl)oxy)pyridin-2-yl)carbamoyl)tetrahydrofuran-3-carboxamide]
IC50 [1]: > 1000 nM | IC50 [2]: 10 to 100 nM | IC50 (osteoclast precursors): 10 to 100 nM | IC50 [3]: > 1000 nM | IC50 (M-NFS-60 cells): 100 to 1000 nM

Structure (SMILES): Cc1ccc(-c2cc(Oc3ccc(NC(=O)NC(=O)C4CCOC4)nc3)ccn2)cn1 (centres unmarked) [Example 89, N-((5-((6′-methyl-[2,3′-bipyridin]-4-yl)oxy)pyridin-2-yl)carbamoyl)tetrahydrofuran-3-carboxamide]
IC50 [1]: > 1000 nM | IC50 [2]: 10 to 100 nM | IC50 (osteoclast precursors): 10 to 100 nM | IC50 [3]: > 1000 nM | IC50 (M-NFS-60 cells): 10 to 100 nM

Structure (SMILES): CC(C)(C)C(=O)NC(=O)Nc1ccc(Oc2ccnc(-c3cncnc3)c2)cn1 [Example 90, N-((5-((2-(pyrimidin-5-yl)pyridin-4-yl)oxy)pyridin-2-yl)carbamoyl)pivalamide]
IC50 [1]: > 1000 nM | IC50 [2]: 10 to 100 nM | IC50 (osteoclast precursors): 10 to 100 nM | IC50 [3]: > 1000 nM | IC50 (M-NFS-60 cells): > 1000 nM

Structure (SMILES): CC(C)(C)C(=O)NC(=O)Nc1ccc(Oc2ccnc(-c3ccc(C(F)(F)F)nc3)c2)cn1 [Example 94, N-((5-((6′-(trifluoromethyl)-[2,3′-bipyridin]-4-yl)oxy)pyridin-2-yl)carbamoyl)pivalamide]
IC50 [1]: > 1000 nM | IC50 [2]: < 10 nM | IC50 (osteoclast precursors): 10 to 100 nM | IC50 [3]: > 1000 nM | IC50 (M-NFS-60 cells): 10 to 100 nM

Structure (SMILES): CC(C)(C)C(=O)NC(=O)Nc1ccc(Oc2ccnc(-c3ccnc(C(F)(F)F)c3)c2)cn1 [Example 95, N-((5-((2′-(trifluoromethyl)-[2,4′-bipyridin]-4-yl)oxy)pyridin-2-yl)carbamoyl)pivalamide]
IC50 [1]: > 1000 nM | IC50 [2]: 10 to 100 nM | IC50 (osteoclast precursors): 10 to 100 nM | IC50 [3]: > 1000 nM | IC50 (M-NFS-60 cells): 100 to 1000 nM

Structure (SMILES): Cc1ccc(-c2cc(Oc3ccc(NC(=O)NC(=O)C4CCCC4)nc3C)ccn2)cn1 [Example 100, N-((6-methyl-5-((6′-methyl-[2,3′-bipyridin]-4-yl)oxy)pyridin-2-yl)carbamoyl)cyclopentanecarboxamide]
IC50 [1]: > 1000 nM | IC50 [2]: < 10 nM | IC50 (osteoclast precursors): < 10 nM | IC50 [3]: 10 to 100 nM | IC50 (M-NFS-60 cells): 10 to 100 nM

More lines, main results first:

IC50 [1]: 10 to 100 nM | IC50 [2]: < 10 nM | IC50 (osteoclast precursors): 10 to 100 nM | IC50 [3]: < 10 nM
Structure (SMILES): Cn1cc(-c2cc(Oc3ccc(NC(=O)NC(=O)C4CC5CCC4CC5)nc3)ccn2)cn1 (centres unmarked) [Example 74, N-((5-((2-(1-methyl-1H-pyrazol-4-yl)pyridin-4-yl)oxy)pyridin-2-yl)carbamoyl)bicyclo[2.2.2]octane-2-carboxamide]
IC50 (M-NFS-60 cells): < 10 nM

IC50 [1]: 100 to 1000 nM | IC50 [2]: < 10 nM | IC50 (osteoclast precursors): < 10 nM | IC50 [3]: 100 to 1000 nM
Structure (SMILES): Cn1cc(-c2cc(Oc3ccc(NC(=O)NC(=O)C4(C)CCC4)nc3)ccn2)cn1 [Example 87, 1-methyl-N-((5-((2-(1-methyl-1H-pyrazol-4-yl)pyridin-4-yl)oxy)pyridin-2-yl)carbamoyl)cyclobutanecarboxamide]
IC50 (M-NFS-60 cells): < 10 nM

IC50 [1]: 100 to 1000 nM | IC50 [2]: < 10 nM | IC50 (osteoclast precursors): < 10 nM | IC50 [3]: 10 to 100 nM
Structure (SMILES): Cc1cc(NC(=O)NC(=O)C(C)C)ncc1Oc1ccnc(-c2cnn(C)c2)c1 [Example 88, N-((4-methyl-5-((2-(1-methyl-1H-pyrazol-4-yl)pyridin-4-yl)oxy)pyridin-2-yl)carbamoyl)isobutyramide]
IC50 (M-NFS-60 cells): < 10 nM

IC50 [1]: < 10 nM | IC50 [2]: < 10 nM | IC50 (osteoclast precursors): 10 to 100 nM | IC50 [3]: 100 to 1000 nM
Structure (SMILES): Cn1cc(-c2cc(Oc3ccc(NC(=O)NC(=O)C4(C(F)(F)F)CCC4)nc3)ccn2)cn1 [Example 101, N-((5-((2-(1-methyl-1H-pyrazol-4-yl)pyridin-4-yl)oxy)pyridin-2-yl)carbamoyl)-1-(trifluoromethyl)cyclobutanecarboxamide]
IC50 (M-NFS-60 cells): < 10 nM
